From the supplement of paper PMC6965134
± gives the standard deviation of the averaged measurements.

Assay: TIMS collisional cross section (CCS, N2) of the lipid ion; higher = larger ion cross section
Settings: ionization mode: positive, one isomer drawn
Procedure: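 Lipid extracts of human plasma (NIST SRM 1950), mouse liver and HeLa cells were separated by nanoflow C18 LC (30 min gradient, 60 °C) and analysed by TIMS-PASEF on a timsTOF Pro in positive ion mode. Ion mobility was calibrated with the Agilent tuning mix and converted to collisional cross sections (Mason–Schamp) in N2 drift gas. Lipids were identified by MS/MS (SimLipid) and manual curation. SMILES are LIPID MAPS representative structures for the annotated lipid.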

Row | SMILES | TIMS collisional cross section (sample type: plasma) | TIMS collisional cross section (sample type: HeLa) | TIMS collisional cross section (sample type: Liver)
1 | CCCCCCCCCCCCCCCCCCCCCC(=O)OC[C@H](CO)OC(=O)CCCCCCCCCCCCCCCCCCCCC [DG 22:0_22:0_0:0] (ion (formula + adduct): [C47H92O5+NH4] 1+) | 301.3 Å² |  | 
2 | C[C@H](CO)CC[C@H](O)[C@@H](C)[C@H]1CC[C@H]2[C@@H]3CC=C4C[C@@H](O)CC[C@]4(C)[C@H]3CC[C@]12C [Dormatinol] (ion (formula + adduct): [C27H46O3+H] 1+) | 210.9 Å² |  | 
3 | CCCCCCCCCCCCC/C=C/[C@@H](O)[C@H](CO[C@@H]1OC(CO)[C@@H](O[C@@H]2OC(CO)[C@H](O)[C@H](O)C2O)[C@H](O)C1O)NC(=O)CCCCCCCCCCCCC (some centres undefined) [GlcCer d18:1_14:0@] (ion (formula + adduct): [C44H83NO13+H] 1+) |  | 297.2 Å² | 
4 | CCCCCCCCCCCCC/C=C/[C@@H](O)[C@H](CO[C@@H]1OC(CO)[C@@H](O[C@@H]2OC(CO)[C@H](O)[C@H](O)C2O)[C@H](O)C1O)NC(=O)CCCCCCCCCCCCCCC (some centres undefined) [GlcCer d18:1_16:0@] (ion (formula + adduct): [C46H87NO13+H] 1+) | 304.2 Å² |  | 
5 | CCCCCCCCCCCCC/C=C/[C@@H](O)[C@H](CO[C@@H]1OC(CO)[C@@H](O[C@@H]2OC(CO)[C@H](O)[C@H](O)C2O)[C@H](O)C1O)NC(=O)CCCCCCCCCCCCCCC (some centres undefined) [GlcCer d18:1_16:0] (ion (formula + adduct): [C46H87NO13+H] 1+) |  | 304.1 Å² | 
6 | CCCCCCCCCCCCC/C=C/[C@@H](O)[C@H](CO[C@@H]1O[C@H](CO)[C@@H](O)C(O)C1O)NC(=O)CCCCCCCCCCCCCCCCCCC (some centres undefined) [GlcCer d18:1_20:0@] (ion (formula + adduct): [C44H85NO8+H] 1+) |  |  | 292.9 Å²
7 | CCCCCCCCCCCCC/C=C/[C@@H](O)[C@H](CO[C@@H]1O[C@H](CO)[C@@H](O)C(O)C1O)NC(=O)CCCCCCCCCCCCCCCCCCCCC (some centres undefined) [GlcCer d18:1_22:0@] (ion (formula + adduct): [C46H89NO8+H] 1+) | 298.1 Å² | 298.3 Å² | 298.7 Å²
8 | CCCCCCCCCCCCC/C=C/[C@@H](O)[C@H](CO[C@@H]1O[C@H](CO)[C@@H](O)C(O)C1O)NC(=O)CCCCCCCCCCCCCCCCCCCCCC (some centres undefined) [GlcCer d18:1_23:0@] (ion (formula + adduct): [C47H91NO8+H] 1+) |  | 301.5 Å² | 301.2 Å²
9 | CCCCCCCCCCCCC/C=C/[C@@H](O)[C@H](CO[C@@H]1O[C@H](CO)[C@@H](O)C(O)C1O)NC(=O)CCCCCCCCCCCCCCCCCCCCCCC (some centres undefined) [GlcCer d18:1_24:0@] (ion (formula + adduct): [C48H93NO8+H] 1+) |  | 304.2 Å² | 304.1 Å²
10 | CCCCCCCC/C=C\CCCCCCCCCCCCCC(=O)N[C@@H](CO[C@@H]1O[C@H](CO)[C@@H](O)C(O)C1O)[C@H](O)/C=C/CCCCCCCCCCCCC (some centres undefined) [GlcCer d18:1_24:1@] (ion (formula + adduct): [C48H91NO8+H] 1+) |  |  | 302.8 Å²
11 | CCCCC/C=C\C/C=C\C/C=C\C/C=C\CCCC(=O)OC[C@@H](O)COP(=O)(O)O [LPA 20:4_0:0] (ion (formula + adduct): [C23H39O7P+H] 1+) | 205 Å² |  | 
12 | CCCCCCCCCCCCCC(=O)OC[C@@H](O)COP(=O)([O-])OCC[N+](C)(C)C [LPC 14:0_0:0] (ion (formula + adduct): [C22H46NO7P+H] 1+) | 222.55 ± 0.78 Å² | 222.8 Å² | 
13 | CCCCCCCCCCCCCCCC(=O)O[C@H](CO)COP(=O)([O-])OCC[N+](C)(C)C [LPC 16:0] (ion (formula + adduct): [C24H50NO7P+H] 1+) | 231 Å² |  | 229.9 Å²
